Laboratory results from patent publication US20260315431A1, “NANOMATERIAL ENCAPSULATED BIOFILM INHIBITORS FOR DENTAL CARIES TREATMENT” (THE UAB RESEARCH FOUNDATION, priority 2023, published 2026).
Converted amounts (≈) assume the structure as drawn. “Also recorded” adds a separate entry of the source. Marks after values point to notes of the source that are not given here.

Tests used:
[1] = Solubility in water containing 1% DMSO (UV spectroscopy); format: physicochemical; conditions: organic solvent or mixture; water containing 1% DMSO
Procedure: Solubility of MA1-6 and HA2-6 were determined as reported^46 (Table 1).
General considerations. ^1H-NMR and ^13C-NMR spectra were recorded on Bruker Avance Neo 400 and Avance II 700 spectrometers using TMS or appropriate solvent signals as internal standard. The chemical shift values are given in parts per million (ppm) relative to the internal standard used and the coupling constants (J) are given in hertz (Hz). High resolution mass spectra (HRMS) were recorded using Waters AutoSpec-Ultima™ NT magnetic sector mass spectrometer with Electron Impact (EI) Ionization source. The mass analyzer is an electric-magnetic-electric (EBE) sector (a double focusing sector). Anhydrous solvents used for reactions were purchased in Sure-Seal™ bottles from Aldrich chemical company. Other chemical reagents were purchased from Aldrich or Fisher chemical companies and used as received. Reactions were monitored with thin layer chromatography (TLC), which was done on silica gel plates with fluorescent indicator (Silicycle, silica gel, UV254, 25 μm plates). The TLC spots were observed under UV light with the wavelengths 254 nm and 365 nm. The reaction mixtures were purified by column chromatography using Si gel (32-63 μm) from Dynamic Absorbent, Inc. Melting points were determined on a Mel-Temp II melting point apparatus and are uncorrected. All tested compounds have ≥95% purity as determined by HPLC. HPLC traces were obtained using Shimadzu SPD-M20A. Solubility of compounds were determined by UV-spectroscopy method using Agilent Cary 60 UV-Vis spectrophotometer. HPLC analysis of the final compounds were conducted using Kinetex 5 μm C18 100 Å, LC Column 150×4.6 mm, compound=3 mM, 20 μL injection, solvent: mobile phase buffer, Conditions: 60% MeCN/40% H2O/0.1% Formic acid (isocratic), HPLC method 0-10 min, Signals were analyzed using a 254 nm UV detector. A chromatogram of Mobile Phase Buffer (20 μL) was obtained for comparison.

S. mutans UA159 = assay: Gnotobiotic rat model of dental caries (HEBI / HA5 study, Example 1); format: in vivo, Fischer 344 rats infected with S. mutans UA159; parameters: key to Buccal Mean Caries Scores (±SEM) E / Buccal Mean Caries Scores (±SEM) Ds / Buccal Mean Caries Scores (±SEM) Dm / Buccal Mean Caries Scores (±SEM) Dx / Sulcal Mean Caries Scores (± SEM) E / Sulcal Mean Caries Scores (± SEM) Ds / Sulcal Mean Caries Scores (± SEM) Dm / Sulcal Mean Caries Scores (± SEM) Dx / Proximal Mean Caries Scores (± SEM) E: caries scores by the method of Keyes; conditions: for CFU/mL BAP: Blood Agar Plates; for CFU/mL BAP / CFU/mL MS / Buccal Mean Caries Scores (±SEM) Dx / Sulcal Mean Caries Scores (± SEM) Dx / Buccal Mean Caries Scores (±SEM) Dm / Sulcal Mean Caries Scores (± SEM) Dm / Buccal Mean Caries Scores (±SEM) Ds / Sulcal Mean Caries Scores (± SEM) Ds / Buccal Mean Caries Scores (±SEM) E / Proximal Mean Caries Scores (± SEM) E / Sulcal Mean Caries Scores (± SEM) E: 100 μM (NaF 250 ppm), 4 weeks; for CFU/mL MS: Mitis Salivarius agar; for Buccal Mean Caries Scores (±SEM) Dx / Sulcal Mean Caries Scores (± SEM) Dx: dentinal extensive; for Buccal Mean Caries Scores (±SEM) Dx / Sulcal Mean Caries Scores (± SEM) Dx / Buccal Mean Caries Scores (±SEM) Dm / Sulcal Mean Caries Scores (± SEM) Dm / Buccal Mean Caries Scores (±SEM) Ds / Sulcal Mean Caries Scores (± SEM) Ds / Buccal Mean Caries Scores (±SEM) E / Proximal Mean Caries Scores (± SEM) E / Sulcal Mean Caries Scores (± SEM) E: topical twice daily; for Buccal Mean Caries Scores (±SEM) Dm / Sulcal Mean Caries Scores (± SEM) Dm: dentinal moderate; for Buccal Mean Caries Scores (±SEM) Ds / Sulcal Mean Caries Scores (± SEM) Ds: dentinal slight; for Buccal Mean Caries Scores (±SEM) E / Proximal Mean Caries Scores (± SEM) E / Sulcal Mean Caries Scores (± SEM) E: enamel
Procedure: Reduction of S. mutans virulence in vivo by HA5 or HEBI. The effects of compound HA5 and HEBI on S. mutans virulence were evaluated using a well-established gnotobiotic rat model of dental caries 67. Hydrogel microparticles with no drug were used to ensure that the observed anti-virulence activity observed with HEBI was not related to the hydrogel material. The standard NaF (250 ppm) was included as a positive control. A (vehicle+infection only) group was included as a negative control. All rats in the experimental groups and control groups were colonized with S. mutans UA159. […] Similar reductions in caries scores were also observed in proximal enamel caries scores (Table 3). An evaluation of the effect of the treatment on proximal dentinal scores was unable to be performed as there were no significant proximal dentinal lesions for the control and treated groups in this study. […] The observed reduction in caries scores by HA5 and HEBI were similar with HEBI displaying slightly better in vivo activity, possibly due to the pH-dependent slow release. The observed reduction in caries scores by HA5 or HEBI is lower than the 250 ppm NaF treatment. However, it should be noted that the concentration of NaF (250 ppm=5.95 mM) is about 59-fold higher than HA5 (100 μM). At the end of the study, the animals were euthanized, their mandibles excised for microbiological analysis of plaque samples on MS agar plates and BAP and for scoring of caries by the method of Keyes^68 to determine the bacterial colonization. […] All in vivo experimental protocols were approved by the University of Alabama at Birmingham Institutional Animal Care and Use Committee (protocol No: IACUC-20047). The methods were carried out in accordance with the relevant guidelines and regulations.
Rat model of dental caries. In vivo studies of colonization and virulence of S. mutans were evaluated using a previously reported rat model of dental caries^71. Offspring of gnotobiotic Fischer 344 rats used in this experiment were bred and maintained in trexler isolators. Male and female rat pups were removed from isolators at 20 days of age and randomly assigned into 5 treatment groups of 5 rats/group in cages with filter tops. Rats were then infected with S. mutans UA159 strain by oral swabbing daily for four consecutive days with a fresh overnight culture of S. mutans UA159. Rats were provided with caries promoting Teklad Diet 305 containing […] (Harlan Laboratories, Inc., Indianapolis, IN) and sterile drinking water ad libitum. Oral swabs were taken 5 days post-infection and plated on Todd Hewitt (TH) agar plates and incubated at 37° C. in an environment of 5% CO2 in the air to confirm colonization. Rats were weighed at weaning and at the termination of the experiment. One-week post-infection, the molars of the rats were treated topically twice daily for 4 weeks with the test compounds using camel-hair brushes. The five treatment groups used in this study were: 1) HEBI (100 μM); 2) HA5 (100 μM); 3) hydrogel encapsulated PBS (no drug) containing 0.1% DMSO (negative control), 4) 250 ppm NaF (positive control) and 5) infected untreated group (negative control). Drinking water was withheld for 60 min following each treatment with the compound. Animals were weighed at weaning and at the termination of the experiment. On day 60, the rats were sacrificed using CO2 followed by cervical dislocation or bilateral thoracotomy. The mandibles were surgically removed and cleaned of excess tissue to assess the level of bacteria present and the extent of caries formation. The right mandibles from each rat were placed in a tube containing phosphate buffer (3 mL), placed on ice and sonicated (10 sec) to release bacteria from the molars. Each sample was serially diluted, plated on blood agar plates (BAP) and mitis-salivarius (MS) agar plates and incubated in an environment of 5% CO2 at 37° C. to quantify the level of total bacteria and S. mutans present in the plaque. […]

| SMILES | solubility [1] | effect on bacterial colonization (S. mutans UA159; 4-week treatment, 100 μM) | reduction in caries scores (S. mutans UA159; 4-week treatment, 100 μM) | CFU/mL BAP (S. mutans UA159) | CFU/mL MS (S. mutans UA159) | Buccal Mean Caries Scores (±SEM) Dx (S. mutans UA159) | Sulcal Mean Caries Scores (± SEM) Dx (S. mutans UA159) | Buccal Mean Caries Scores (±SEM) Dm (S. mutans UA159) | Sulcal Mean Caries Scores (± SEM) Dm (S. mutans UA159) | Buccal Mean Caries Scores (±SEM) Ds (S. mutans UA159) | Sulcal Mean Caries Scores (± SEM) Ds (S. mutans UA159) | Buccal Mean Caries Scores (±SEM) E (S. mutans UA159) | Proximal Mean Caries Scores (± SEM) E (S. mutans UA159) | Sulcal Mean Caries Scores (± SEM) E (S. mutans UA159) |
| --- | --- | --- | --- | --- | --- | --- | --- | --- | --- | --- | --- | --- | --- | --- |
| O=C1/C(=C/c2cc(O)c(O)cc2O)Oc2ccccc21 [HA5, 2-[(2′,4′,5′-Trihydroxyphenyl)methylidene]-2,3-dihydro-1-benzofuran-3-one] | 120 µg/mL (≈ 444 µM) | not significant; also recorded: without affecting the bacterial colonization significantly | significant reduction in buccal, sulcal, and proximal dental caries scores | 3.0 ± 1.0 CFU/mL (×10^6) | 2.5 ± 0.8 CFU/mL (×10^6) | 2.0 ± 0.7 | 4.4 ± 0.9 | 3.8 ± 0.2 | 8.8 ± 0.9 | 6.0 ± 0.4 | 16.2 ± 0.4 | 11.0 ± 0.3 | 4.0 ± 0.0 | 22.0 ± 0.6 |
| O=C1/C(=C/c2cc(O)c(O)c(O)c2)Oc2ccccc21 [HA6, 2-[(3′,4′,5′-Trihydroxyphenyl)methylidene]-2,3-dihydro-1-benzofuran-3-one] | 90.8 µg/mL (≈ 336 µM) | – | – | – | – | – | – | – | – | – | – | – | – | – |
| [F-].[Na+] [NaF, reference compound] | – | – | – | 4.0 ± 0.9 CFU/mL (×10^6) | 3.4 ± 0.5 CFU/mL (×10^6) | 0.0 ± 0.0 | 1.0 ± 0.3 | 1.0 ± 0.8 | 4.6 ± 0.2 | 2.4 ± 0.8 | 11.2 ± 0.4 | 5.0 ± 0.7 | 1.2 ± 0.8 | 14.2 ± 0.7 |
